Experimental data published in paper PMC6079014, “Calcium is an essential cofactor for metal efflux by the ferroportin transporter family” (Nature Communications, 2018).
Where two headings read alike, the source gives them in different places.

Tests used:
human Fpn = biological target: T1, human Fpn (Homo sapiens, UniProt Q9NP59); test: 45Ca radiotracer uptake assay in Xenopus oocytes expressing Fpn; assay type: cell-based; conditions: 100 μM 45Ca2+, 30 min; vehicle or 50 nl of 50 µM Fe injected
T1 construct: expressed in transfected cells; host or cells: Xenopus laevis oocytes injected with Fpn RNA
T1 sequence (Q9NP59 1-571): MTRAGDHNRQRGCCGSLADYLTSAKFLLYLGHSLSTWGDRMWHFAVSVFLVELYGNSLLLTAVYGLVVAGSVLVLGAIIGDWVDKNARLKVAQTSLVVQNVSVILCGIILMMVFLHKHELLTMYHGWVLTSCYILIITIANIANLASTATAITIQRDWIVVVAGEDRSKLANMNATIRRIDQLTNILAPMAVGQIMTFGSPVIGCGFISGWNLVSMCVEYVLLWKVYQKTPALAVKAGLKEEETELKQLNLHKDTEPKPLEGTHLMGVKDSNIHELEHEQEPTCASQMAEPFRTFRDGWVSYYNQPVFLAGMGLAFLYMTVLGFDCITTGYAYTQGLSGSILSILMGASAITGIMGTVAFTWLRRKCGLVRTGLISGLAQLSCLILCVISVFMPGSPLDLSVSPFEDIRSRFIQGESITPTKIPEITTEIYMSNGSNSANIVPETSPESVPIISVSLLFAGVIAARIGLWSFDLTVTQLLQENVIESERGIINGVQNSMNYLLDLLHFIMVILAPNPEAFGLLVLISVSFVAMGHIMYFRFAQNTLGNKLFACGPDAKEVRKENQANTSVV
Procedure: We performed laparotomy and ovariectomy on adult female Xenopus laevis frogs (Nasco, Fort Atkinson, WI) under 2-aminoethylbenzoate methanesulfonate anesthesia (0.2%, by immersion, to effect) following a protocol approved by the University of Cincinnati Institutional Animal Care and Use Committee. Ovarian tissue was isolated and treated for 3 h with […] collagenase A (Roche Diagnostics Corp., Indianapolis, IN) in calcium-free-modified Barths’ medium (MBM) of composition 88 mM NaCl, 1 mM KCl, 2.4 mM NaHCO3, 1.57 mM MgSO4, 0.66 mM NaNO3, 10 mM 4-(2-hydroxyethyl)-1-piperazineethanesulfonic acid (HEPES), buffered to pH 7.5 by using 2-amino-2-hydroxymethyl-propane-1,3-diol (Tris base). We isolated defolliculate stage V–VI oocytes stored at 17 °C in MBM of composition 88 mM NaCl, 1 mM KCl, 2.4 mM NaHCO3, 0.82 MgSO4, 0.75 mM CaCl2, 0.66 mM NaNO3, 10 mM HEPES, buffered to pH 7.5 by using Tris base, with 50 mg l^−1 ciprofloxacin. We expressed in Xenopus oocytes the 1A transcript form of human Fpn fused at its C-terminus with the enhanced green fluorescent protein (GFP) as described. Oocytes were injected with ∼50 ng of Fpn RNA and incubated for 4–6 days before being used in functional assays. Control oocytes were noninjected.
We measured calcium uptake by using a radiotracer assay. […]

wild type BbFpn = wild type BbFpn (Bdellovibrio bacteriovorus, UniProt Q6MLJ0); test: biochemical; assay type: binding, Bdellovibrio bacteriovorous
[1] = Supplementary Figs. 5 and 9, one experiment

Sequence of wild type BbFpn (Q6MLJ0 whole entry): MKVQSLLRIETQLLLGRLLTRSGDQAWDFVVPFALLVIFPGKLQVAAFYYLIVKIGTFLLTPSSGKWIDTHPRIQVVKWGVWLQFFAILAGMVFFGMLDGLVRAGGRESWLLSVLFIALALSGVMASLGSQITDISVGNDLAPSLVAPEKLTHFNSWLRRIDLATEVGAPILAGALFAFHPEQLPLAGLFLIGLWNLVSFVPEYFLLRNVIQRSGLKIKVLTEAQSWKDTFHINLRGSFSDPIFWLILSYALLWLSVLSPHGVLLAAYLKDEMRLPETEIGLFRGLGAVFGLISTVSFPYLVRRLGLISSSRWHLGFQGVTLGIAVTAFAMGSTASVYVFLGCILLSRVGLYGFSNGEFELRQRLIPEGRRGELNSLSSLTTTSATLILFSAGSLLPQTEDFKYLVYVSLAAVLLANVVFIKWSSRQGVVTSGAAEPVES

[Ca+2] [Ca^2+, calcium]
Uptake of 45Ca2+ in oocytes expressing Fpn vs control (human Fpn): neither Fpn expression nor intracellular iron injection stimulated
Kd (wild type BbFpn; 20 °C, 20 mM Tris pH 8, 50 mM NaCl, 0.004% LMNG, read-out: Kd (ITC)): 1.2e-05 ± 4e-07 M
-TΔS, ITC (wild type BbFpn; [1]): -15.3 kcal/mol
N (sites), ITC (wild type BbFpn; [1]): 0.691 ± 8.5e-3
ΔG, ITC (wild type BbFpn; [1]): -6.61 kcal/mol
ΔH, ITC (wild type BbFpn; [1]): 8.68 ± 0.155 kcal/mol
Kd (wild type BbFpn; Supplementary Figs. 5 and 9, one experiment, read-out: KD (M), ITC): 1.18e-05 M
